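Where inhibition never reached the appropriate level, the endpoint shown equals the highest concentration tested. Otherwise, values were interpolated linearly from a five-concentration, 48-hour dose response in 96-well plates. GI50 is the concentration that inhibits growth by half. TGI denotes the concentration required for complete inhibition of growth.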
Tests used:
Assay in all cases: inhibition of tumour cell growth, NCI panel, 48 h
CCRF-CEM leukemia = tested on: CCRF-CEM leukemia
MOLT-4 leukemia = tested on: MOLT-4 leukemia
SF-295 CNS = tested on: SF-295 CNS
SF-539 CNS = tested on: SF-539 CNS
IGROV1 ovarian = tested on: IGROV1 ovarian
UACC-257 melanoma = tested on: UACC-257 melanoma
PC-3 prostate = tested on: PC-3 prostate
COLO 205 colon = tested on: COLO 205 colon
MDA-MB-435 = tested on: MDA-MB-435
CAKI-1 renal = tested on: CAKI-1 renal
UACC-62 melanoma = tested on: UACC-62 melanoma
MCF7 breast = tested on: MCF7 breast
MALME-3M melanoma = tested on: MALME-3M melanoma
OVCAR-8 ovarian = tested on: OVCAR-8 ovarian
U251 CNS = tested on: U251 CNS
NCI-H226 lung = tested on: NCI-H226 lung
HT29 colon = tested on: HT29 colon
786-0 renal = tested on: 786-0 renal
A498 renal = tested on: A498 renal
UO-31 renal = tested on: UO-31 renal
RXF 393 renal = tested on: RXF 393 renal
DU-145 prostate = tested on: DU-145 prostate
NCI-H522 lung = tested on: NCI-H522 lung
ACHN renal = tested on: ACHN renal
NCI-H23 lung = tested on: NCI-H23 lung
SNB-19 CNS = tested on: SNB-19 CNS
LOX IMVI melanoma = tested on: LOX IMVI melanoma
HL-60(TB) leukemia = tested on: HL-60(TB) leukemia
RPMI-8226 leukemia = tested on: RPMI-8226 leukemia
HOP-92 NSCLC = tested on: HOP-92 NSCLC
OVCAR-4 ovarian = tested on: OVCAR-4 ovarian
SK-MEL-2 melanoma = tested on: SK-MEL-2 melanoma
A549 NSCLC = tested on: A549 NSCLC
SN12C renal = tested on: SN12C renal
M14 melanoma = tested on: M14 melanoma
SW-620 colon = tested on: SW-620 colon
HOP-62 NSCLC = tested on: HOP-62 NSCLC
SK-OV-3 ovarian = tested on: SK-OV-3 ovarian
SNB-75 CNS = tested on: SNB-75 CNS
SK-MEL-5 melanoma = tested on: SK-MEL-5 melanoma
KM12 colon = tested on: KM12 colon
EKVX NSCLC = tested on: EKVX NSCLC
K-562 leukemia = tested on: K-562 leukemia
SR leukemia = tested on: SR leukemia
NCI/ADR-RES ovarian = tested on: NCI/ADR-RES ovarian
NCI-H460 lung = tested on: NCI-H460 lung
MDA-MB-231 breast = tested on: MDA-MB-231 breast
HCC-2998 colon = tested on: HCC-2998 colon
OVCAR-5 ovarian = tested on: OVCAR-5 ovarian
OVCAR-3 ovarian = tested on: OVCAR-3 ovarian
BT-549 breast = tested on: BT-549 breast
SK-MEL-28 melanoma = tested on: SK-MEL-28 melanoma
HCT-116 colon = tested on: HCT-116 colon
T-47D breast = tested on: T-47D breast
TK-10 renal = tested on: TK-10 renal
SF-268 CNS = tested on: SF-268 CNS
HCT-15 colon = tested on: HCT-15 colon

## CSc1nc2c(c(=O)n1C)N=C(c1ccc([N+](=O)[O-])cc1)CC(c1ccccc1)N2 (stereo not given)
CCRF-CEM leukemia
  TGI: > 100 µM
MOLT-4 leukemia
  TGI: > 100 µM
SF-295 CNS
  TGI: > 100 µM
SF-539 CNS
  TGI: > 100 µM
IGROV1 ovarian
  TGI: > 100 µM
UACC-257 melanoma
  TGI: > 100 µM
PC-3 prostate
  TGI: > 100 µM
COLO 205 colon
  TGI: > 100 µM
MDA-MB-435
  TGI: > 100 µM
CAKI-1 renal
  TGI: > 100 µM
UACC-62 melanoma
  TGI: > 100 µM
MCF7 breast
  TGI: > 100 µM
MALME-3M melanoma
  TGI: > 100 µM
OVCAR-8 ovarian
  TGI: > 100 µM
U251 CNS
  TGI: > 100 µM
NCI-H226 lung
  TGI: > 100 µM
HT29 colon
  TGI: > 100 µM
786-0 renal
  TGI: > 100 µM
A498 renal
  TGI: > 100 µM
UO-31 renal
  TGI: > 100 µM
RXF 393 renal
  TGI: > 100 µM
DU-145 prostate
  TGI: > 100 µM
NCI-H522 lung
  TGI: > 100 µM
ACHN renal
  TGI: > 100 µM
NCI-H23 lung
  TGI: > 100 µM
SNB-19 CNS
  TGI: > 100 µM
LOX IMVI melanoma
  TGI: > 100 µM
HL-60(TB) leukemia
  TGI: 65.9 µM
RPMI-8226 leukemia
  TGI: > 100 µM
HOP-92 NSCLC
  TGI: > 100 µM
OVCAR-4 ovarian
  TGI: > 100 µM
SK-MEL-2 melanoma
  TGI: > 100 µM
A549 NSCLC
  TGI: > 100 µM
SN12C renal
  TGI: > 100 µM
M14 melanoma
  TGI: > 100 µM
SW-620 colon
  TGI: > 100 µM
HOP-62 NSCLC
  TGI: > 100 µM
SK-OV-3 ovarian
  TGI: > 100 µM
SNB-75 CNS
  TGI: > 100 µM
SK-MEL-5 melanoma
  TGI: > 100 µM
KM12 colon
  TGI: > 100 µM
EKVX NSCLC
  TGI: > 100 µM
K-562 leukemia
  TGI: > 100 µM
SR leukemia
  TGI: > 100 µM
NCI/ADR-RES ovarian
  TGI: > 100 µM
NCI-H460 lung
  TGI: > 100 µM
MDA-MB-231 breast
  TGI: > 100 µM
HCC-2998 colon
  TGI: > 100 µM
OVCAR-5 ovarian
  TGI: > 100 µM
OVCAR-3 ovarian
  TGI: > 100 µM
BT-549 breast
  TGI: > 100 µM
SK-MEL-28 melanoma
  TGI: > 100 µM
HCT-116 colon
  TGI: > 100 µM

## Cc1cc(C)c(-c2c(N)cc(Br)cc2Br)c(N)c1
SF-295 CNS
  GI50: 3.16 µM
  TGI: 14.8 µM
SF-539 CNS
  GI50: 2.94 µM
  TGI: 9.87 µM
IGROV1 ovarian
  GI50: 6.13 µM
  TGI: 22.7 µM
UACC-257 melanoma
  GI50: 5.84 µM
  TGI: 22.1 µM
T-47D breast
  GI50: 5.71 µM
  TGI: 19.3 µM
PC-3 prostate
  GI50: 6.42 µM
  TGI: 26.5 µM
COLO 205 colon
  GI50: 4.93 µM
  TGI: 15.6 µM
TK-10 renal
  GI50: 7.17 µM
  TGI: 20.5 µM
MDA-MB-435
  GI50: 2.29 µM
  TGI: 7.37 µM
CAKI-1 renal
  GI50: 3.83 µM
  TGI: 19.1 µM
UACC-62 melanoma
  GI50: 4.3 µM
  TGI: 17.2 µM
MCF7 breast
  GI50: 4.03 µM
  TGI: 13.8 µM
MALME-3M melanoma
  GI50: 5.09 µM
  TGI: 20.3 µM
OVCAR-8 ovarian
  GI50: 10.2 µM
  TGI: 31.7 µM
U251 CNS
  GI50: 4.73 µM
  TGI: 17 µM
NCI-H226 lung
  GI50: 11.8 µM
  TGI: 26.5 µM
HT29 colon
  GI50: 3.49 µM
  TGI: 13.1 µM
786-0 renal
  GI50: 7.75 µM
  TGI: 21.6 µM
A498 renal
  GI50: 2.35 µM
  TGI: 14.4 µM
UO-31 renal
  GI50: 5.4 µM
  TGI: 20 µM
RXF 393 renal
  GI50: 3.16 µM
  TGI: 8.78 µM
DU-145 prostate
  GI50: 4.33 µM
  TGI: 16.4 µM
NCI-H522 lung
  GI50: 4.85 µM
  TGI: 19.1 µM
ACHN renal
  GI50: 10 µM
  TGI: 22.8 µM
SF-268 CNS
  GI50: 7.86 µM
  TGI: 21.5 µM
NCI-H23 lung
  GI50: 4.89 µM
  TGI: 18 µM
SNB-19 CNS
  GI50: 6.68 µM
  TGI: 26.4 µM
LOX IMVI melanoma
  GI50: 5.21 µM
  TGI: 18 µM
RPMI-8226 leukemia
  GI50: 5.19 µM
  TGI: 19.6 µM
HOP-92 NSCLC
  GI50: 2.77 µM
  TGI: 9.4 µM
OVCAR-4 ovarian
  GI50: 8.43 µM
  TGI: 22.3 µM
SK-MEL-2 melanoma
  GI50: 3.95 µM
  TGI: 14.1 µM
A549 NSCLC
  GI50: 5.62 µM
  TGI: 19.6 µM
SN12C renal
  GI50: 7.41 µM
  TGI: 21.9 µM
M14 melanoma
  GI50: 4.4 µM
  TGI: 15.7 µM
SW-620 colon
  GI50: 3.93 µM
  TGI: 16 µM
SK-OV-3 ovarian
  GI50: 3.53 µM
  TGI: 14.3 µM
HCT-15 colon
  GI50: 4.7 µM
  TGI: 17.3 µM
SNB-75 CNS
  GI50: 2.48 µM
  TGI: 10.1 µM
SK-MEL-5 melanoma
  GI50: 3.82 µM
  TGI: 13.9 µM
KM12 colon
  GI50: 3.89 µM
  TGI: 14.5 µM
EKVX NSCLC
  GI50: 5.15 µM
  TGI: 26.3 µM
NCI/ADR-RES ovarian
  GI50: 2.98 µM
  TGI: 9.11 µM
NCI-H460 lung
  GI50: 4.5 µM
  TGI: 16.7 µM
MDA-MB-231 breast
  GI50: 4.85 µM
  TGI: 19 µM
HCC-2998 colon
  GI50: 10.9 µM
  TGI: 23.1 µM
OVCAR-5 ovarian
  GI50: 11.6 µM
  TGI: 25.6 µM
OVCAR-3 ovarian
  GI50: 3.09 µM
  TGI: 8.74 µM
BT-549 breast
  GI50: 5.76 µM
  TGI: 18.2 µM
SK-MEL-28 melanoma
  GI50: 6.25 µM
  TGI: 21 µM
HCT-116 colon
  GI50: 4.35 µM
  TGI: 15.6 µM

— PubChem BioAssay (NCI)
